{"source": "paper PMC7369637", "about": "“Inhibition of Resistance-Refractory P. falciparum Kinase PKG Delivers Prophylactic, Blood Stage, and Transmission-Blocking Antiplasmodial Activity” (Cell Chemical Biology, 2020)", "key": {"[1]": {"test_system": "Dd2-B2 and ed. Dd2-B2 TKL3KO parasites", "assay": "In vitro selections for MMV030084 resistance", "type": "cell-based, Plasmodium falciparum", "details": "1 × 10^9 Dd2-B2 TKL3KO parasites, 1,100 nM", "protocol": "The resulting MMV030084-resistant parasites were cloned by limiting dilution ([Baker et al., 2017]) to obtain genetically homogenous cultures for further phenotyping and whole-genome sequencing. A second round of […]. […] Drug susceptibility of resistant lines was assessed using a 72 h ABS assay as described above, and a Mann Whitney U test was applied to assess statistically significant differences."}, "[2]": {"target": "T1, receptor interacting serine/threonine kinase 2 (Homo sapiens, UniProt O43353)", "T1 construct": "human cell/tissue protein extract (a mixture of HEK-293, K-562, Hep G2 , and placental cells); endogenous in cells; host or cells: mixture of HEK-293, K-562, Hep G2 and placenta", "T1 sequence (O43353 whole entry)": "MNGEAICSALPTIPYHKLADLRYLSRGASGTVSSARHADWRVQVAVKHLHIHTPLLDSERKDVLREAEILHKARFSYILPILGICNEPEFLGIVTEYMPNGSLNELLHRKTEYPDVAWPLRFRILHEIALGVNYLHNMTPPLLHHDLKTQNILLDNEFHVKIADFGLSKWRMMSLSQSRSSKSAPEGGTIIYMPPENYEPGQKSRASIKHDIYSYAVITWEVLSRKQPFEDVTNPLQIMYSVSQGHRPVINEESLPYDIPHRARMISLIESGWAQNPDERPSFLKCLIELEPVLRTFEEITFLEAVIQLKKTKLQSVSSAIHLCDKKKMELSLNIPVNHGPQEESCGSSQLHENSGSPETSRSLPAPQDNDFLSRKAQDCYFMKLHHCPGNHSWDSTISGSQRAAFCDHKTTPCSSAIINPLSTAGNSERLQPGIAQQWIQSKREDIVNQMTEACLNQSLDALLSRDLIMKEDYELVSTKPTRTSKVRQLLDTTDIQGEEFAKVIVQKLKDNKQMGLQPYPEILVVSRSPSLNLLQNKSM", "assay": "Chemoproteomics in human mixed tissue extracts", "type": "binding", "details": "read-out: Kdapp", "protocol": "(§1) Human extracts were prepared as described ([Bantscheff et al., 2011]). Briefly, frozen cell pellets were homogenized in lysis buffer (50 mM Tris-HCl, 0.8% Igepal-CA630, 5% glycerol, 150 mM NaCl, 1.5 mM MgCl2, 25 mM sodium fluoride, 1 mM sodium vanadate, 1 mM DTT, pH 7.5). One cOmplete EDTA-free protease inhibitor tablet (Roche) was added per 25 ml. Samples were dispersed using a Dounce homogenizer, rotated for 30 min at 4°C, and centrifuged at 20,000g for 10 min at 4°C. Supernatants were then recentrifuged at 145,000g for 1 h at 4°C. Protein concentrations were determined using a Bradford assay (BioRad). Aliquots were snap frozen in liquid nitrogen and stored at −80°C.\n(§2) Kinobeads were prepared by immobilizing Bis-(III) indolyl-maleimide, purvalanol B, staurosporine and CZC8004, and the analogs of PD173955, sunitinib and vandetanib on NHS-activated Sepharose 4 beads (Amersham) ([Bantscheff et al., 2007]). […] The chemoproteomic affinity-capturing experiments were performed as previously described ([Bantscheff et al., 2011]). Briefly, beads were washed and equilibrated in lysis buffer (50 mM Tris-HCl, pH 7.4, 0.4 % Igepal-CA630, 1.5 mM MgCl2, 5 % Glycerol, 150 mM NaCl, 25 mM NaF, 1 mM Na3VO4, 1 mM DTT, and one cOmplete EDTA-free protease inhibitor tablet (Roche) per 25 mL). The beads were incubated at 4°C for 1 h with either 0.1 ml (0.3 mg) Pf blood stage extract or 0.5 mL (2.5 mg) human cell/tissue protein extract (a mixture of HEK-293, K-562, Hep G2 , and placental cells), which was pre-incubated with compound or DMSO (vehicle control). 10 samples were measured in parallel (TMT 10-plex ([Werner et al., 2014])) to generate values for the affinity of the beads to the bound proteins (“depletion” values, 4 samples) and to generate IC50 values (6 samples) in a single experiment. Apparent dissociation constants were determined after accounting for protein depletion by the beads ([Bantscheff et al., 2011]). Beads were transferred to Filter plates (Durapore PVDF membrane, Merck Millipore), washed with lysis buffer, and eluted with SDS sample buffer.\n(§3) Proteins were digested according to a modified single pot solid-phase sample preparation (SP3) protocol ([Hughes et al., 2014]). Peptides were labeled with isobaric mass tags (Thermo Fisher Scientific, Waltham, MA) using 10-plex TMT reagents, enabling relative quantification of 10 conditions in a single experiment ([Werner et al., 2014]). The labeling reactions and LC-MS/MS measurements using Q Exactive Orbitrap or Orbitrap Fusion Lumos mass spectrometers (Thermo Fisher Scientific) were performed as described elsewhere ([Sridharan et al., 2019]). Mascot 2.4 (Matrix Science, Boston, MA) was used for protein identification by using a 10 parts per million mass tolerance for peptide precursors and 20 mD (HCD) mass tolerance for fragment ions. To create the fasta file for mascot searching, all proteins corresponding to the taxonomy ‘Plasmodium falciparum (isolate 3D7)’ were downloaded from Uniprot (release 20170621) and supplemented with common contaminant protein sequences of bovine serum albumin, porcine trypsin and mouse, rat, sheep and dog keratins. To assess the false discovery rate (FDR), “decoy” proteins (reverse of all protein sequences) were created and added to the database, resulting in a database containing a total of 14266 protein sequences, with 50% forward and 50% reverse. For peptide and protein identification of human proteins see ([Sridharan et al., 2019]). Unless stated otherwise, we accepted protein identifications as follows: (i) For single-spectrum to sequence assignments, we required this assignment to be the best match and a minimum Mascot score of 31 and a 10× difference of this assignment over the next best assignment. Based on these criteria, the decoy search results indicated <1% false discovery rate (FDR). (ii) For multiple spectrum to sequence assignments and using the same parameters, the decoy search results indicated <0.1% FDR. […]"}, "casein kinase 1δ": {"target": "T2, casein kinase 1δ (Homo sapiens, UniProt P48730)", "T2 construct": "human cell/tissue protein extract (a mixture of HEK-293, K-562, Hep G2 , and placental cells); endogenous in cells; host or cells: mixture of HEK-293, K-562, Hep G2 and placenta", "T2 sequence (P48730 whole entry)": "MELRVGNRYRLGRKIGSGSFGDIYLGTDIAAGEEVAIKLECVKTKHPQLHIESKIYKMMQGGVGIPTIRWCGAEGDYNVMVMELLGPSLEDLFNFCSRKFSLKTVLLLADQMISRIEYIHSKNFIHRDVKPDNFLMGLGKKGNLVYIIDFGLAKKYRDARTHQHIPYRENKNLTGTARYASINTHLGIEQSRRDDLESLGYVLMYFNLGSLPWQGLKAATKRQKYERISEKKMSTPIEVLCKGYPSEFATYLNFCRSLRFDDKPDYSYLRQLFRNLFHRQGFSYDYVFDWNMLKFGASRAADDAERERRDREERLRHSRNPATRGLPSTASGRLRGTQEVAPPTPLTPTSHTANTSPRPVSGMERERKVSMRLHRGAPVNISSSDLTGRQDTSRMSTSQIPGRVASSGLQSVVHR", "assay": "Chemoproteomics in human mixed tissue extracts", "type": "binding", "details": "read-out: Kdapp", "protocol": "as §1, §2, §3"}, "protein kinase N3": {"target": "T3, protein kinase N3 (Homo sapiens, UniProt Q6P5Z2)", "T3 construct": "human cell/tissue protein extract (a mixture of HEK-293, K-562, Hep G2 , and placental cells); endogenous in cells; host or cells: mixture of HEK-293, K-562, Hep G2 and placenta", "T3 sequence (Q6P5Z2 whole entry)": "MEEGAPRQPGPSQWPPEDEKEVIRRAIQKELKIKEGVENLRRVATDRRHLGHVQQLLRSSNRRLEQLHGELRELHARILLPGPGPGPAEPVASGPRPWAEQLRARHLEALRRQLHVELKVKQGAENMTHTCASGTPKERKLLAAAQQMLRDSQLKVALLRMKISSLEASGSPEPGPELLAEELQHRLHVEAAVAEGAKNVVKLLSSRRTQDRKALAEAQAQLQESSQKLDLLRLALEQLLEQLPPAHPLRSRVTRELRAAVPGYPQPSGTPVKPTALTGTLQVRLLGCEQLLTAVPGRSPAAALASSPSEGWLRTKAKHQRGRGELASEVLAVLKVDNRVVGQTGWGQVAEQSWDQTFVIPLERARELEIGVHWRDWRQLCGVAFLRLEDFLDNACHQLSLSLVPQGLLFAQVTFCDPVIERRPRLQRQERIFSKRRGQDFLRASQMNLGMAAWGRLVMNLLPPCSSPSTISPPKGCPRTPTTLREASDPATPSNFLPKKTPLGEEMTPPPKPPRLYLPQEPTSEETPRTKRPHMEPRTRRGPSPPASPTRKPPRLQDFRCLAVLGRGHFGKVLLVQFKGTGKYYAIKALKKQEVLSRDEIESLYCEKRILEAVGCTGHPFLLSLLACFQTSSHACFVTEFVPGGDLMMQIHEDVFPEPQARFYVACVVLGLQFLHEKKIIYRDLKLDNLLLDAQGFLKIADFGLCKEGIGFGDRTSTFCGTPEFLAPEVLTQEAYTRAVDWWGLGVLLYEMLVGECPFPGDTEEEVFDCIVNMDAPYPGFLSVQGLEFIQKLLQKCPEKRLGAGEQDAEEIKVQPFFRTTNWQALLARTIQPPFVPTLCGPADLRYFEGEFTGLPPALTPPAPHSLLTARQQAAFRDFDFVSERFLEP", "assay": "Chemoproteomics in human mixed tissue extracts", "type": "binding", "details": "read-out: Kdapp", "protocol": "as §1, §2, §3"}, "[3]": {"target": "T4, testis-associated actin remodeling kinase 2 (Homo sapiens, UniProt Q96S53)", "T4 construct": "human cell/tissue protein extract (a mixture of HEK-293, K-562, Hep G2 , and placental cells); endogenous in cells; host or cells: mixture of HEK-293, K-562, Hep G2 and placenta", "T4 sequence (Q96S53 whole entry)": "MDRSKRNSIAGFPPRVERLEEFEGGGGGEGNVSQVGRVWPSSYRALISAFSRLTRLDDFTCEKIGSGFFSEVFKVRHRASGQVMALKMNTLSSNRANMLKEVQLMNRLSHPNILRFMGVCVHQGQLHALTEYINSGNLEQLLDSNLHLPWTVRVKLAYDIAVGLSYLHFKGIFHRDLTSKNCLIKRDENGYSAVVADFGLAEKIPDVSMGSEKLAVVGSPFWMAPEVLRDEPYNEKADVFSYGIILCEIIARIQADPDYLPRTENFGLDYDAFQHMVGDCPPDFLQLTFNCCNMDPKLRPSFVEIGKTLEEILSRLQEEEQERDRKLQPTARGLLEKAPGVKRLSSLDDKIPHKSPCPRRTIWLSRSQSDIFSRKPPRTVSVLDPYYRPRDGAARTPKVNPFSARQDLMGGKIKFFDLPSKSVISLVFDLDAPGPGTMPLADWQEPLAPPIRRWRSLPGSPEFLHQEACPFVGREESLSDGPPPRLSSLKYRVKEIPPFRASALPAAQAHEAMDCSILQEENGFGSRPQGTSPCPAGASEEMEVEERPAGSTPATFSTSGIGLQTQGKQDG", "assay": "Chemoproteomics in human mixed tissue extracts", "type": "binding", "details": "read-out: Kdapp", "protocol": "as §1, §2, §3"}, "[4]": {"target": "T5, transforming growth factor β receptor 2 (Homo sapiens, UniProt P37173)", "T5 construct": "human cell/tissue protein extract (a mixture of HEK-293, K-562, Hep G2 , and placental cells); endogenous in cells; host or cells: mixture of HEK-293, K-562, Hep G2 and placenta", "T5 sequence (P37173 23-567)": "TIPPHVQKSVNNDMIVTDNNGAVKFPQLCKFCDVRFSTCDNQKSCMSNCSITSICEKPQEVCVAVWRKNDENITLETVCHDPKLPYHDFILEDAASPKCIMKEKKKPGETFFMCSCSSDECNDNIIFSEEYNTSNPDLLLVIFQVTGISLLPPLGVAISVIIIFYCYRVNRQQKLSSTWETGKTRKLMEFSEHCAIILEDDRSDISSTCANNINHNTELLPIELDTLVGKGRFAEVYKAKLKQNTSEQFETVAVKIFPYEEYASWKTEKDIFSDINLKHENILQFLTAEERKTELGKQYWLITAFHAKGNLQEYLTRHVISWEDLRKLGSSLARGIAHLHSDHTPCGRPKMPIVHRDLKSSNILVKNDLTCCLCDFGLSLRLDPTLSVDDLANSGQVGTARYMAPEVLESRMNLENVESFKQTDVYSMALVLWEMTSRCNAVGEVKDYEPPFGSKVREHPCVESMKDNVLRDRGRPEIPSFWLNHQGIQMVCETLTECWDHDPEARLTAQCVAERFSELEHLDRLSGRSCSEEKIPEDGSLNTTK", "assay": "Chemoproteomics in human mixed tissue extracts", "type": "binding", "details": "read-out: Kdapp", "protocol": "as §1, §2, §3"}, "nemo-like kinase": {"target": "T6, nemo-like kinase (Homo sapiens, UniProt Q9UBE8)", "T6 construct": "human cell/tissue protein extract (a mixture of HEK-293, K-562, Hep G2 , and placental cells); endogenous in cells; host or cells: mixture of HEK-293, K-562, Hep G2 and placenta", "T6 sequence (Q9UBE8 whole entry)": "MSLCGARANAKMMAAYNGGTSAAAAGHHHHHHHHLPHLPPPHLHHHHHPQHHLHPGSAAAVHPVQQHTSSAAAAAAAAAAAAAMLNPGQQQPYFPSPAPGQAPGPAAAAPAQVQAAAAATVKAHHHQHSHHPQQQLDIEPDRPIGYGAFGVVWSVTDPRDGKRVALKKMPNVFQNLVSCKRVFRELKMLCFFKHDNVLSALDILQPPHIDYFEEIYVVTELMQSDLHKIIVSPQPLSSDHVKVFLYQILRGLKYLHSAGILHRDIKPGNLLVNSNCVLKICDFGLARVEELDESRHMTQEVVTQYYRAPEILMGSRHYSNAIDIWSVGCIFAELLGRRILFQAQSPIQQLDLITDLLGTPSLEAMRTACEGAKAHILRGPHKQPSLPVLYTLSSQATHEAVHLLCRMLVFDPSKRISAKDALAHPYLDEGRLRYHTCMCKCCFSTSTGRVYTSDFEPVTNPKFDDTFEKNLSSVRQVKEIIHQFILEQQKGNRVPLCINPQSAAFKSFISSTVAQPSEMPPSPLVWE", "assay": "Chemoproteomics in human mixed tissue extracts", "type": "binding", "details": "read-out: Kdapp", "protocol": "as §1, §2, §3"}, "[5]": {"target": "T7, transforming growth factor β receptor 1 (Homo sapiens, UniProt P36897)", "T7 construct": "human cell/tissue protein extract (a mixture of HEK-293, K-562, Hep G2 , and placental cells); endogenous in cells; host or cells: mixture of HEK-293, K-562, Hep G2 and placenta", "T7 sequence (P36897 34-503)": "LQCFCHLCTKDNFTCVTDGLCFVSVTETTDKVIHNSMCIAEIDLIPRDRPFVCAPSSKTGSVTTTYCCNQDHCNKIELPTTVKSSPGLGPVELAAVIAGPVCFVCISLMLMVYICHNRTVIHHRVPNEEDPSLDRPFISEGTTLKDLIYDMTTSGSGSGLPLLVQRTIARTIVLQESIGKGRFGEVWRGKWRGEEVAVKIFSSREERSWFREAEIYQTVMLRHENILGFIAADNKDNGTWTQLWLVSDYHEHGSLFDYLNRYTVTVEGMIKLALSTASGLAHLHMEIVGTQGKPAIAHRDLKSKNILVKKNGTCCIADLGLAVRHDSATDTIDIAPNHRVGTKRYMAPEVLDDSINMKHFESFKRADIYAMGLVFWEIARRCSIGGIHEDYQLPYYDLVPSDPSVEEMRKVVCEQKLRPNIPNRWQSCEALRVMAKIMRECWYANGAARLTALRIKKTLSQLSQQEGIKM", "assay": "Chemoproteomics in human mixed tissue extracts", "type": "binding", "details": "read-out: Kdapp", "protocol": "as §1, §2, §3"}, "female gamete formation": {"test_system": "female gamete formation", "details": "ref Miguel-Blanco et al., 2017; cited from earlier work"}, "[6]": {"test_system": "NF54 CDPK1T145M mutant line", "assay": "ABS susceptibility, CDPK1 gatekeeper mutant line", "type": "cell-based", "details": "Plasmodium falciparum, NF54, read-out: Mean IC50", "protocol": "Synchronicity was achieved using three rounds of sorbitol treatment on early rings, spaced 48 h apart, followed by magnetic purification of segmented schizonts following the final sorbitol treatment. Parasites were highly synchronous to within a 3 h window of development. Assays were repeated on at least three independent occasions (each with technical duplicates) and statistical significance was assessed using Mann Whitney U tests."}}, "note": "pIC50, pKd: −log10 of the molar value."}
{"smiles": "CC(C)(CN)c1nc(-c2ccc(Cl)c(O)c2)c(-c2ccncc2)[nH]1", "note": "[MMV030084]", "values": [{"measurement": "Parasite recrudescence under continuous exposure", "setting": "[1]", "result": "did not result in parasite recrudescence"}, {"measurement": "pKd", "setting": "[2]", "result": 8.35}, {"measurement": "pKd", "setting": "casein kinase 1δ", "result": 7.02}, {"measurement": "pKd", "setting": "protein kinase N3", "result": 8.07}, {"measurement": "pKd", "setting": "[3]", "result": 7.60}, {"measurement": "pKd", "setting": "[4]", "result": 7.46}, {"measurement": "pKd", "setting": "nemo-like kinase", "result": 7.70}, {"measurement": "pKd", "setting": "[5]", "result": 7.70}, {"measurement": "Inhibition of female gamete formation", "setting": "female gamete formation", "result": "inhibitors of female gamete formation"}, {"measurement": "pIC50", "setting": "[6]", "result": 7.05}]}
